The text below walks through data of ChEMBL document CHEMBL1201862, “PubChem BioAssay data set” (2004).

Test systems include CAKI-1; COLO 205; HCT-116; HL-60; HOP-62; HOP-92; HT-29; K562; M14; NCI-H226; NCI-H460; RPMI-8226; SF-268; SK-MEL-28; SK-MEL-5; SW-620; Hs-578T; MCF7; DU-145.
What all share (assay): NCI anticancer screen, dose series, 48 h

Molecules are shown by their SMILES.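 Each compound was tested at five concentrations against cells in 96-well plates for 48 hours. Here, GI50 denotes the concentration required for 50% inhibition of growth.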 The source made the active and inactive calls. No stated cut-off is given here; in the data, active = GI50 up to about 1.1 µM and inactive = higher. Some results are limits rather than exact numbers.

Take `O=C1C=CC(=O)c2cc(Sc3ccccc3)c(=O)c(Sc3ccccc3)cc21`: the GI50 in the assay on CAKI-1 is > 100 µM (inactive); in the assay with COLO 205 it was 73.3 µM (inactive); in the assay with HCT-116, 32.6 µM (inactive); in the assay with HL-60 it was 10.6 µM (inactive); in the assay on HOP-62, > 100 µM (inactive); with HOP-92, 18.9 µM (inactive). Also, the GI50 in the assay on HT-29 was > 100 µM (inactive); in the assay with K562 it was 28.1 µM (inactive); with M14, > 100 µM (inactive); with NCI-H226, > 100 µM (inactive); in the assay on NCI-H460, > 100 µM (inactive); with RPMI-8226 it was 37.3 µM (inactive). Moreover, the GI50 in the assay on SF-268 is 42 µM (inactive); in the assay with SK-MEL-28, 95.1 µM (inactive); with SK-MEL-5, > 100 µM (inactive); with SW-620, > 100 µM (inactive).
For the molecule `O=C1CN(c2cccc(C(F)(F)F)c2)C(=O)CN1NCNN1CC(=O)N(c2cccc(C(F)(F)F)c2)CC1=O`, the GI50 with COLO 205, in the assay on HCT-116, with HL-60, in the assay with HOP-62, in the assay on HT-29 and with Hs-578T was > 100 µM (inactive) throughout. For the same molecule, the GI50 in the assay with K562, in the assay with M14, in the assay on MCF7, in the assay with NCI-H460, in the assay on RPMI-8226 and in the assay with SF-268 was > 100 µM (inactive) each time. Further, the GI50 in the assay with SK-MEL-28, in the assay on SK-MEL-5 and in the assay on SW-620 was > 100 µM (inactive) in each case.
Take `COc1cc(OC)c(C2CC=Cc3c(OC)cc(OC)c(OC)c32)cc1OC` (centres undefined): the GI50 in the assay on CAKI-1, with COLO 205, with HCT-116, in the assay on HL-60, with HOP-62 and with HOP-92 was > 100 µM (inactive) each time. The GI50 with HT-29, in the assay on K562, in the assay on M14, in the assay on NCI-H226, in the assay on NCI-H460 and with RPMI-8226 was > 100 µM (inactive) each time. Moreover, the GI50 with SF-268, in the assay with SK-MEL-28, with SK-MEL-5 and in the assay on SW-620 was > 100 µM (inactive) each time.
`CCCCCC/C(CC(=O)CCC(=O)NCCc1ccccc1)=N\Nc1ccc([N+](=O)[O-])cc1[N+](=O)[O-]`: the GI50 is > 100 µM (inactive) in the assay on CAKI-1; 64.3 µM (inactive) in the assay with COLO 205; 36.7 µM (inactive) in the assay with HCT-116; 27.9 µM (inactive) in the assay with HL-60; > 100 µM (inactive) in the assay on HOP-62; 41.7 µM (inactive) with HOP-92. In addition, the GI50 with HT-29 was > 100 µM (inactive); with K562 it was 38.1 µM (inactive); with M14 it was > 100 µM (inactive); in the assay with NCI-H226 it was 60.4 µM (inactive); in the assay on NCI-H460, > 100 µM (inactive); with RPMI-8226 it was 27 µM (inactive). Moreover, the GI50 in the assay with SF-268 was 71.6 µM (inactive); in the assay with SK-MEL-28, > 100 µM (inactive); in the assay on SK-MEL-5, 70.1 µM (inactive); in the assay with SW-620 it was 68.1 µM (inactive).
Regarding `Cc1cccc(C)c1CO`, the GI50 in the assay on CAKI-1, in the assay on COLO 205, with HCT-116, in the assay on HL-60, in the assay with HOP-62 and in the assay with HOP-92 was > 100 µM (inactive) each time. Moreover, the GI50 in the assay on HT-29, in the assay with K562, with M14, in the assay on NCI-H226, with NCI-H460 and with RPMI-8226 was > 100 µM (inactive) in each case. Moreover, the GI50 with SF-268 and with SW-620 was > 100 µM (inactive) in each case.
Regarding `CC1(C)CSCC(C)(C)C(=N/N)/C1=N\N`, the GI50 in the assay on CAKI-1, with COLO 205, with DU-145, in the assay with HCT-116, with HL-60 and in the assay on HOP-62 was > 100 µM (inactive) each time. Further, the GI50 in the assay with HOP-92, in the assay with HT-29, with K562, in the assay with M14, in the assay on MCF7 and in the assay on NCI-H226 was > 100 µM (inactive) throughout. For the same molecule, the GI50 in the assay on NCI-H460, with SF-268, in the assay with SK-MEL-28, in the assay on SK-MEL-5 and in the assay on SW-620 was > 100 µM (inactive) in each case.
Take `COc1cc(C2C(C(=O)Nc3ccccc3)=C(C)NC(C)=C2C(=O)Nc2ccccc2)ccc1O`: the GI50 is 24.2 µM (inactive) with COLO 205; 34.5 µM (inactive) with HCT-116; 22.4 µM (inactive) in the assay on HL-60; > 100 µM (inactive) in the assay with HOP-62; 19.3 µM (inactive) with HOP-92; 18.7 µM (inactive) in the assay on HT-29. The GI50 with K562 was 30.6 µM (inactive); in the assay with NCI-H226, 49.3 µM (inactive); in the assay on NCI-H460, 43.7 µM (inactive); in the assay with RPMI-8226 it was 26.4 µM (inactive); in the assay on SF-268, > 100 µM (inactive); in the assay with SK-MEL-28, 46.7 µM (inactive). Moreover, the GI50 in the assay on SW-620 is 37.9 µM (inactive).
Turning to `C[C@H]1ON2CCC[C@@H]2[C@@H]1C(=O)N1C2CC3CCC2(CS1(=O)=O)C3(C)C` (some centres undefined), the GI50 in the assay on CAKI-1 was > 100 µM (inactive); in the assay on COLO 205, > 100 µM (inactive); in the assay with DU-145 it was > 100 µM (inactive); in the assay on HCT-116, > 100 µM (inactive); in the assay with HL-60, 0.295 µM (active); in the assay with HOP-62, > 100 µM (inactive). The GI50 in the assay with HT-29, with Hs-578T, in the assay with K562, in the assay on M14, with MCF7 and in the assay on NCI-H226 was > 100 µM (inactive) throughout. The GI50 in the assay with NCI-H460, in the assay with SF-268, in the assay on SK-MEL-28, with SK-MEL-5 and in the assay on SW-620 was > 100 µM (inactive) in each case.
As to `O=C(O)c1ccc([I+]c2ccccc2)cc1`, the GI50 in the assay on CAKI-1, in the assay with COLO 205, with HCT-116, with HL-60, in the assay with HOP-62 and in the assay with HOP-92 was > 100 µM (inactive) in each case. For the same molecule, the GI50 in the assay on HT-29, in the assay with K562, in the assay on M14, with NCI-H226, in the assay with NCI-H460 and in the assay with RPMI-8226 was > 100 µM (inactive) in each case. The GI50 in the assay on SF-268, with SK-MEL-5 and in the assay on SW-620 was > 100 µM (inactive) in each case.
Regarding `CCOc1ccc(/N=N/c2ccc3oc(=O)c(/C(C)=N/NC(=O)CC(=O)Nc4cccc(OC)c4)cc3c2)cc1`, the GI50 is 28.1 µM (inactive) in the assay with COLO 205; 10.2 µM (inactive) in the assay on HCT-116; 3.64 µM (inactive) in the assay with HL-60; 17.9 µM (inactive) in the assay on HOP-62; 19.1 µM (inactive) in the assay on HOP-92; 7.96 µM (inactive) in the assay on K562. Moreover, the GI50 in the assay on M14 was 16.4 µM (inactive); in the assay on NCI-H226, > 39.7 µM (inactive); in the assay on NCI-H460, 20 µM (inactive); in the assay on RPMI-8226 it was 8.53 µM (inactive); in the assay with SF-268, 13.3 µM (inactive); in the assay on SK-MEL-28, 20.8 µM (inactive). Also, the GI50 is 20.2 µM (inactive) in the assay with SK-MEL-5 and 21.4 µM (inactive) with SW-620.
`COc1cc2ccn3c4cc(OC)c(OC)cc4cc3c2cc1OC`: the GI50 was 29.6 µM (inactive) in the assay on CAKI-1; > 100 µM (inactive) in the assay on COLO 205; 32.8 µM (inactive) in the assay on HCT-116; 4.83 µM (inactive) in the assay on HL-60; > 100 µM (inactive) with HOP-62; > 100 µM (inactive) in the assay on HOP-92. The GI50 in the assay on HT-29 was > 100 µM (inactive); in the assay on K562, > 100 µM (inactive); with M14, 63.1 µM (inactive); with NCI-H226 it was > 100 µM (inactive); in the assay on NCI-H460, > 100 µM (inactive); in the assay with RPMI-8226, 5.6 µM (inactive). Moreover, the GI50 in the assay with SF-268, in the assay with SK-MEL-28 and with SW-620 was > 100 µM (inactive) throughout.
For the molecule `N#Cc1ccccc1NC(=O)C(=O)C(C(=O)c1ccncc1)C1OC(=O)c2ccccc21` (centres undefined), the GI50 with CAKI-1, in the assay on COLO 205, with HCT-116, in the assay on HL-60, with HOP-62 and in the assay with HOP-92 was > 100 µM (inactive) each time. Moreover, the GI50 with HT-29, in the assay on K562, with M14, with NCI-H226, in the assay on NCI-H460 and with SF-268 was > 100 µM (inactive) each time. For the same molecule, the GI50 in the assay with SK-MEL-28, in the assay with SK-MEL-5 and with SW-620 was > 100 µM (inactive) in each case.
As for `COC1=CC(C2c3cc4c(cc3[C@@H](Nc3ccc(F)cc3)C3COC(=O)[C@H]23)OCO4)=CC(=O)C1=O` (some centres undefined), the GI50 was 4.48 µM (inactive) with CAKI-1; 15.7 µM (inactive) with COLO 205; 9.89 µM (inactive) in the assay with HCT-116; 2.11 µM (inactive) with HL-60; 1.61 µM (inactive) with HOP-62; 6.92 µM (inactive) in the assay with HOP-92. Besides, the GI50 in the assay on HT-29 is 20.2 µM (inactive); with K562, 10.4 µM (inactive); in the assay on M14 it was 7.82 µM (inactive); with NCI-H226, 11.1 µM (inactive); in the assay on NCI-H460, 0.608 µM (active); in the assay with RPMI-8226, 10.5 µM (inactive). In addition, the GI50 in the assay with SF-268 was 8.05 µM (inactive); with SK-MEL-28, 19.2 µM (inactive); in the assay with SK-MEL-5 it was 9.35 µM (inactive); with SW-620, 12.7 µM (inactive).
